Patent publication US20250082605A1 (priority 2016, published 2025)

What was measured:
[1] = test system: rats with induced chronic heart failure (CHF); experiment: Cardiac function in rats with induced chronic heart failure; type: in vivo, Sprague-Dawley rats
Method: Both significance measures were at the P<0.05 level.
(§1) The following Examples 1 through 9 discuss data from rats with induced CHF. The Examples show many improved indicators associated with RTX treatment in CHF subjects. The rat models provide for comparison of epidural administration of RTX against epicardial administration of RTX and against various controls. For the epicardial data, RTX was administered directly to the epicardium by swab during open surgery contemporaneously with induced myocardial infarction (coronary artery ligation).
(§2) For epidural application of RTX, a small midline incision was made in the region of the T13-L1 thoracic vertebrae. Following dissection of the superficial muscles, two small holes (approximately 2 mm by 2 mm) were made in the left and right sides of the T13 vertebra. A polyethylene catheter (PE-10) was inserted into the […] via the left hole and gently advanced about 5.5-6 cm to the left T1 level at which the first injection (6 μg/mL, 10 μL) was made at a very slow speed to minimize the diffusion of RTX. Then the catheter was pulled back about 0.5 cm to left T2, T3, and T4, respectively, to perform serial injections (10 μL each) in each segment. Then the catheter was withdrawn and the same injection was repeated on the right side. A silicone gel was used to seal the hole in the T13 vertebra. The skin overlying the muscle was closed with a 3-0 polypropylene suture. Simple interrupted sutures were used to close the skin.
The experimental data included: body weight, heart weight, the ratio of heart weight to body weight (HW/BW), the ratio of wet lung weight to body weight (WLW/BW), the left ventricle end systolic pressure (LVESP), the left ventricle end diastolic pressure (LVEDP), maximum first derivative of left ventricular pressure (dp/dtmax), the minimum first derivative of left ventricular pressure (dp/dtmin), and infarct size. […] Both significance measures were at the P<0.05 level. […] The columns titled “Sham+vehicle” and “Sham+RTX” provide a comparison for sham rats without induced chronic heart failure, and without and with, respectively, epidural RTX treatment.
The experimental data included: body weight, heart weight, the ratio of heart weight to body weight (HW/BW), the ratio of wet lung weight to body weight (WLW/BW), mean arterial pressure (MAP), the left ventricle end diastolic pressure (LVEDP), heart rate, the maximum first derivative of left ventricular pressure (dp/dtmax), the minimum first derivative of left ventricular pressure (dp/dtmin), and infarct size. […] Both significance measures were at the P<0.05 level.

rats with induced CHF [2] = experiment: Cardiac and renal sympathetic nerve activity (CSNA, RSNA) in CHF rats; type: in vivo, rat; conditions: for cardiac sympathetic nerve activity (CSNA): CHF
Method: (§3) In each case, administration of vehicle or RTX and vehicle was epidural. […] Both significance measures were at the P<0.05 level.
as §1, §2
In each case, administration of vehicle or RTX plus vehicle was epidural. […] Both significance measures were at the P<0.05 level.

rats with induced CHF [3] = experiment: End-systolic and end diastolic pressure volume relationship in CHF rats; type: in vivo, rat
Text: In each case, administration of vehicle or RTX and vehicle was epidural.
as §3, §1, §2
In each case, administration of vehicle or RTX and vehicle was epidural. […] CHF corresponds to a reduction in ESPVR, with appeared unaffected by epidural RTX.

rats with induced CHF [4] = experiment: Mean arterial pressure over 24 hours in CHF rats; type: in vivo, rat; conditions: epidural RTX, 10-12 weeks after myocardial infarction
Method: The study was conducted 10-12 weeks after the myocardial infarction.
as §2
For each population, n=6-8. The study was conducted for a 10-12 week period after the myocardial infarction. […] Treatment with epidural RTX corresponds to a lower MAP for the CHF rat population.

[5] = test system: established hypertensive rat model; experiment: MAP and heart rate in established hypertensive rats after lumbar (L2-L5) RTX administration; type: in vivo
Method: Blood pressure measurements are 8 hours average per day.
Example 12 describes an experiment in which RTX administration was made to the lumbar region of a rat population (L2-L5).
Blood pressure continued to increase above the pre-injection baseline level by the end of the study period.

TRPV1 afferents = experiment: Immunofluorescence study for TRPV1 afferents after L2-L5 RTX administration; type: in vivo, rat
Text: Additionally, an immunofluorescence study for TRPV1 afferents was made following administration at the L2-L5 levels. […] Within the T1-T5 levels, no reduction in TRPV1 afferents was shown following the L2-L5 injection. Within the heart, TRPV1 fluorescence remained on the surfaces of the myocardium and within the cardiac tissue.

TRPV1 = TRPV1 (Rattus norvegicus, UniProt O35433); experiment: TRPV1 receptor intensity by vertebral level after epidural RTX injection at T1-T4; type: in vivo; set-up: from tissue; host or cells: rat tissue at vertebral levels C6-L4 after in vivo epidural RTX; conditions: RTX injection at T1-T4 vertebral levels, FIG. 2
Text: The nerves associated with the sympatho-excitation corresponding to increased cardiac sympathetic nerve activity are predominately found within the first four thoracic vertebral levels (Evans et al. (1953) N. Engl. J. Med. 249:791-796). Thus, administration to one or more of the first four thoracic vertebral levels may be beneficial because the nerves associated with cardiac sympathetic afferent nerve activity are predominately found within the first four thoracic vertebral levels. By treating these thoracic vertebral levels, denervation of these sympathetic afferent nerves will be substantially achieved with minimal or only partial denervation or ablation of nerves at other vertebral levels. […] Additionally, the small images inset on the figure show greater intensity of activity visible at the C6, C7, T6, T7, and L4 vertebral levels, as compared to the C8 through T5 vertebral levels.
For epidural application of RTX, a small midline incision was made in the region of the T13-L1 thoracic vertebrae. Following dissection of the superficial muscles, two small holes (approximately 2 mm by 2 mm) were made in the left and right sides of the T13 vertebra. […]

[6] = CHF + epidural RTX vs CHF + vehicle, P<0.05

Sequence of TRPV1 (O35433 whole entry): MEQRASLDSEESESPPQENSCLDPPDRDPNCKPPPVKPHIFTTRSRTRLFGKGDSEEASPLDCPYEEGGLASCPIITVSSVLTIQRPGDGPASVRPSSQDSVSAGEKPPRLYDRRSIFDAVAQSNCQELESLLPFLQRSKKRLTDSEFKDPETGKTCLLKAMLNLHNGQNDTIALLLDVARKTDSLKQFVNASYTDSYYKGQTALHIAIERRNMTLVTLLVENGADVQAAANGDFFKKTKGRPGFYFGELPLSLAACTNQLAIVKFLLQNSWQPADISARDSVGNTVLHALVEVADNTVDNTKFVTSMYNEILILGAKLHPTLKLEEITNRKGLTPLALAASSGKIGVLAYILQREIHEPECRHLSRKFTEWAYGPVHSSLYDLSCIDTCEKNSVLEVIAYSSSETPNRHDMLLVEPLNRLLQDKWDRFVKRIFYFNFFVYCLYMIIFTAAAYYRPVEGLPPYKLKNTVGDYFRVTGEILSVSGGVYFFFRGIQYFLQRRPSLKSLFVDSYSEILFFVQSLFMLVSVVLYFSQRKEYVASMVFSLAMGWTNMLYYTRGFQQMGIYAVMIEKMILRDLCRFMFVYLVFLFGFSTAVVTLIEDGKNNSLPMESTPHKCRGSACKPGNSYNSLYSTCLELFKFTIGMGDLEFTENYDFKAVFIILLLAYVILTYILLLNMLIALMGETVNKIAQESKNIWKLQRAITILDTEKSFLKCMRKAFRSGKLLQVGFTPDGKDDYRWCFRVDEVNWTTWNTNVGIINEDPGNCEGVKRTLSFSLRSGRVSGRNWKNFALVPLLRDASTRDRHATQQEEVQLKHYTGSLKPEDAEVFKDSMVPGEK

C=C(C)[C@]12C[C@@H](C)[C@@]34O[C@](Cc5ccccc5)(O[C@@H]1[C@@H]3C=C(COC(=O)Cc1ccc(O)c(OC)c1)C[C@]1(O)C(=O)C(C)=C[C@@H]41)O2 [RTX, resiniferatoxin]
left ventricle end diastolic pressure, increase over sham ([1]; CHF + epidural RTX (CHF + vehicle: 380%)): 60% | infarct size, difference ([1]; CHF + epidural RTX vs CHF + vehicle): not being statistically significant | heart weight [1, 6]: statistically significantly better | heart weight as a percentage of body weight [1, 6]: statistically significantly better | left ventricle end diastolic pressure [1, 6]: statistically significantly better | minimum first derivative of left ventricular pressure (dp/dtmin) [1, 6]: statistically significantly better | wet lung weight as a percentage of body weight [1, 6]: statistically significantly better | cardiac function results, epidural versus epicardial administration ([1]; FIG. 5 column D vs FIG. 6 column H): comparable to the results achieved by epicardial administration, or are in some cases better | CHF-induced increase in basal cardiac sympathetic tone (CSNA and RSNA) (rats with induced CHF [2]; CHF + epidural RTX): not exhibited | basal cardiac sympathetic tone, difference (rats with induced CHF [2]; CHF + epidural RTX vs non-CHF population): not statistically significant | cardiac sympathetic nerve activity (CSNA) (rats with induced CHF [2]; epicardial RTX vs untreated CHF): substantially reduced | cardiac sympathetic nerve activity (CSNA) (rats with induced CHF [2]; epidural RTX vs epicardial RTX): substantially lower | cardiac sympathetic nerve activity (CSNA) (rats with induced CHF [2]; epidural RTX vs untreated CHF): substantially reduced | end diastolic pressure volume relationship (EDPVR), difference (rats with induced CHF [3]; CHF + epidural RTX vs population without CHF): not statistically significant | end diastolic pressure volume relationship (EDPVR) (rats with induced CHF [3]; CHF + epidural RTX vs untreated CHF): statistically significantly less | end-systolic pressure volume relationship (ESPVR), CHF-related reduction (rats with induced CHF [3]; epidural RTX): unaffected | mean arterial pressure (MAP) over 24 hours (rats with induced CHF [4]): lower MAP | heart rate following RTX injection ([5]; RTX L2-L5): increase in heart rate | time over which heart rate increase subsides ([5]; RTX L2-L5, after injection): 2 to 10 days | time at which MAP returned to the pre-injection baseline ([5]; RTX L2-L5, after treatment): 15 to 20 days | MAP following lumbar injection ([5]; RTX L2-L5, established hypertensive rats): reduced immediately | sustained treatment of hypertension ([5]; RTX to lumbar region L2-L5): does not achieve the sustained treatment of hypertension | TRPV1 afferents in DRG neurons, L2-L5 levels (TRPV1 afferents): elimination of most TRPV1 afferents | TRPV1 afferents, L1 level (TRPV1 afferents): many TRPV1 afferents remained | TRPV1 afferents, T1-T5 levels (TRPV1 afferents): no reduction | TRPV1 fluorescence in the heart (surfaces of the myocardium and cardiac tissue) (TRPV1 afferents): remained | reduced vanilloid (TRPV1) receptor intensity, localisation (TRPV1): generally localized to the four treated vertebral levels and the one or two vertebral levels proximate the treated vertebral levels
